Assay results reported in patent publication US20230321186A1, “Mucin Glycans as Antifungal Agents” (Massachusetts Institute of Technology, priority 2022, published 2023).

Tests used:
Format in all cases: cell-based, Candida albicans
[1] = test system: C. albicans; assay: Filamentation assay (hyphal growth, phase-contrast images); details: 0.4%, RPMI, 37° C., 8 h, vs monosaccharide pool and medium alone
Description: Hyphal growth of C. albicans was induced by diluting cells to OD600=0.05 into prewarmed hyphae-inducing medium as indicated and incubating at 37° C. (200 rpm) in a glass-bottom, 96-well plate. Cells were grown in hyphae-inducing medium for several hours, as described in BRIEF DESCRIPTION OF THE DRAWINGS. Images were acquired with a confocal laser scanning microscope (Zeiss, Oberkochen, Germany; LSM 800) equipped with a ×63/1.4 NA oil-immersion or a 25× objective. Images were analyzed using Zeiss ZEN v.2.1. Representative micrographs are shown.

[2] = test system: C. albicans SC5314; assay: RT-qPCR analysis of C. albicans gene expression; details: for suppression of filamentation-associated genes: broader range of genes, six synthetic glycans, FIG. 9E; for effect of the added sugar on the gene regulatory activity (YWP1, ECE1) of the unmodified Core: compared with Core 1 or Core 2; for ECE1 transcription / YWP1 transcription: modified Core structures, FIGS. 9C-9D; for YWP1 expression: 0.1% (w/v) synthetic glycan
Description: For RNA extraction from C. albicans grown in the presence or absence of mucin glycans, 100 μL of RPMI or 0.1% w/v MUC5AC glycans in RPMI were inoculated with a 1:50 dilution of an overnight culture of strain SC5314 and incubated at 37° C. for the time indicated. Total RNA was extracted with the MasterPure RNA Purification Kit (Lucigen, Middleton, WI) and residual DNA was removed using the Turbo DNA-free kit (Ambion, Austin, TX). The integrity of the total RNA was assessed using an Agilent 2100 Bioanalyzer (Agilent Technologies, Santa Clara, CA). rRNA was removed using the Ribo-Zero® rRNA Removal Kit (Yeast; Epicentre).
A list of the primers used in this study is provided in Table 1. qPCR with reverse transcription (RT-qPCR) was performed using a two-step method. First-strand cDNA was synthesized from total RNA using the […] First Strand cDNA Synthesis kit (New England Biolabs, Ipswich, MA). The cDNA was used as template for RT-qPCR using a SYBR PowerUp Master Mix kit (Applied Biosystems, Life Technologies) on a Roche LightCycler 480 real-time PCR system. The ACT1 and 18S rRNA genes were used as endogenous controls as specified. […] Changes in gene expression were calculated based on mean change in qPCR cycle threshold (ΔCt) using the ΔΔCt method (fold change=[…]).

[3] = test system: C. albicans SC5314; assay: RT-qPCR analysis of C. albicans gene expression; details: for ECE1 expression: 0.1% and 0.4%; for YWP1 expression on concentration increase: increase to 0.4% (w/v)
[4] = test system: C. albicans; assay: C. albicans growth (growth curves); details: 0.1% (w/v)
Description: Strains were maintained on yeast extract peptone dextrose (YPD) agar (2% Bacto peptone, 2% glucose, 1% yeast extract, 2% agar) and grown at 30° C. Single colonies were inoculated into YPD broth and grown with shaking overnight at 30° C. prior to each experiment. Experiments were performed with Gibco RPMI 1640 medium (Life Technologies, Carlsbad, CA; #31800-089) buffered with 165 mM 3-(N-morpholino)propanesulfonic acid (MOPS) and supplemented with 0.2% NaHCO3 and 2% glucose; YPD medium with 10% fetal bovine serum; GlcNAc medium (0.5% N-acetylglucosamine, 0.5% peptone, 0.3% KH2PO4); Spider medium (1% nutrient broth, 1% D-mannitol, 2 g K2HPO4, 50 mg/mL arginine, 10 mg/mL histidine, and 50 mg/mL tryptophan); or Lee's medium^45. Growth curves were performed in Synthetic Defined (SD)+0.004% (w/v) L-Arginine+0.0025% (w/v) L-Leucine media with 2% glucose.

Structure (SMILES)	filamentation, synthetic glycan structures [1]	suppression of filamentation-associated genes [2]	effect of the added sugar on the gene regulatory activity (YWP1, ECE1) of the unmodified Core [2]	ECE1 transcription [2]	YWP1 transcription [2]	ECE1 expression [3]	YWP1 expression on concentration increase [3]	YWP1 expression [2]	toxic effects, as measured by C. albicans growth [4]
CO[C@H]1O[C@H](CO)[C@H](O)[C@H](O[C@@H]2O[C@H](CO)[C@H](O)[C@H](O)[C@H]2O[C@@H]2O[C@@H](C)[C@@H](O)[C@@H](O)[C@@H]2O)[C@H]1NC(C)=O [Core 1+fucose, Methyl α-L-fucopyranosyl-(1→2)-β-D-galactopyranosyl-(1→3)-2-acetamido-2-deoxy-α-D-galactopyranoside]	most potently blocked filamentation	strongest suppression	did not measurably alter	downregulating ECE1	transcriptionally upregulated YWP1	–	–	–	–
CO[C@H]1O[C@H](CO)[C@H](O)[C@H](O[C@@H]2O[C@H](CO)[C@H](O)[C@H](O[C@]3(C(=O)[O-])C[C@H](O)[C@@H](NC(C)=O)[C@H]([C@H](O)[C@H](O)CO)O3)[C@H]2O)[C@H]1NC(C)=O.[Na+] [Core 1+sialic acid, Methyl 3-O-(sodium 5-acetamido-3,5-dideoxy-D-glycero-α-D-galacto-2-nonulopyranosylonate)-β-D-galactopyranosyl-(1→3)-2-acetamido-2-deoxy-α-D-galactopyranoside]	less effective at suppressing filamentation	weakest effect	dampened the gene regulatory response of Core 1	downregulating ECE1	transcriptionally upregulated YWP1	–	–	–	–
CO[C@H]1O[C@H](CO)[C@H](O)[C@H](O[C@@H]2O[C@H](CO)[C@H](O)[C@H](O)[C@H]2O)[C@H]1NC(C)=O [Core 1, Methyl β-D-galactopyranosyl-(1→3)-2-acetamido-2-deoxy-α-D-galactopyranoside]	most potently blocked filamentation	strongest suppression	–	–	–	suppressed ECE1 expression at 0.1% and 0.4%, albeit less strongly than the mucin glycan pool	did not significantly alter YWP1 expression	upregulated YWP1 expression at 0.1% (w/v) to a similar degree as the intact mucin pool	Neither Core 1 nor Core 2 showed toxic effects
CO[C@H]1O[C@H](CO[C@@H]2O[C@H](CO)[C@@H](O)[C@H](O)[C@H]2NC(C)=O)[C@H](O)[C@H](O[C@@H]2O[C@H](CO)[C@H](O)[C@H](O)[C@H]2O[C@@H]2O[C@@H](C)[C@@H](O)[C@@H](O)[C@@H]2O)[C@H]1NC(C)=O [Core 2+fucose, Methyl α-L-fucopyranosyl-(1→2)-β-D-galactopyranosyl-(1→3)-[2-acetamido-2-deoxy-β-D-glucopyranosyl-(1→6)]-2-acetamido-2-deoxy-α-D-galactopyranoside]	–	–	did not measurably alter	downregulating ECE1	transcriptionally upregulated YWP1	–	–	–	–
CO[C@H]1O[C@H](CO[C@@H]2O[C@H](CO)[C@@H](O[C@@H]3O[C@H](CO)[C@H](O)[C@H](O)[C@H]3O)[C@H](O)[C@H]2NC(C)=O)[C@H](O)[C@H](O[C@@H]2O[C@H](CO)[C@H](O)[C@H](O)[C@H]2O)[C@H]1NC(C)=O [Core 2+galactose, Methyl β-D-galactopyranosyl-(1→4)-2-acetamido-2-deoxy-β-D-glucopyranosyl-(1→6)-[β-D-galactopyranosyl-(1→3)]-2-acetamido-2-deoxy-α-D-galactopyranoside]	most potently blocked filamentation	strongest suppression	did not significantly alter Core 2 activity	downregulating ECE1	transcriptionally upregulated YWP1	–	–	–	–
CO[C@H]1O[C@H](CO[C@@H]2O[C@H](CO)[C@@H](O)[C@H](O)[C@H]2NC(C)=O)[C@H](O)[C@H](O[C@@H]2O[C@H](CO)[C@H](O)[C@H](O)[C@H]2O)[C@H]1NC(C)=O [Core 2, Methyl β-D-galactopyranosyl-(1→3)-[2-acetamido-2-deoxy-β-D-glucopyranosyl-(1→6)]-2-acetamido-2-deoxy-α-D-galactopyranoside]	–	–	–	–	–	suppressed ECE1 expression at 0.1% and 0.4%, albeit less strongly than the mucin glycan pool	did not significantly alter YWP1 expression	upregulated YWP1 expression at 0.1% (w/v) to a similar degree as the intact mucin pool	Neither Core 1 nor Core 2 showed toxic effects
